Source: ChEMBL document CHEMBL5291721, “A preclinical secondary pharmacology resource illuminates target-adverse drug reaction associations of marketed drugs” (Nat Commun, 2023)

Tests used:
[1] = biological target: Sodium-dependent dopamine transporter (Homo sapiens, UniProt Q01959)
[2] = biological target: T1, Muscarinic acetylcholine receptor M2 (Homo sapiens, UniProt P08172)
T1 sequence (P08172 whole entry): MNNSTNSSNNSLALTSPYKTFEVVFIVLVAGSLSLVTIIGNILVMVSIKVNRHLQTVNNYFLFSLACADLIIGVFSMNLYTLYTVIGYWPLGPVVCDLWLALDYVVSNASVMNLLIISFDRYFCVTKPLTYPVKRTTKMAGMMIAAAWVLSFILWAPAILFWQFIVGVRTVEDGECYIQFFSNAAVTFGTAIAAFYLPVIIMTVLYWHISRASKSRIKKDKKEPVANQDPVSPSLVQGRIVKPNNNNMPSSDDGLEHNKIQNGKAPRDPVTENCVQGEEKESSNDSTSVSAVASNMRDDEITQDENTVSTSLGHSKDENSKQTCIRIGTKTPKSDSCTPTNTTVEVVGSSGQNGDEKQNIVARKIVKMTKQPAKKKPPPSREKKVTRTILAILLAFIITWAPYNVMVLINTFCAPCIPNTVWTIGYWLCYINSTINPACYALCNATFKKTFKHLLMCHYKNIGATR

Thromboxane A2 receptor = biological target: T2, Thromboxane A2 receptor (Homo sapiens, UniProt P21731); format: functional, cell-based
T2 sequence (P21731 whole entry): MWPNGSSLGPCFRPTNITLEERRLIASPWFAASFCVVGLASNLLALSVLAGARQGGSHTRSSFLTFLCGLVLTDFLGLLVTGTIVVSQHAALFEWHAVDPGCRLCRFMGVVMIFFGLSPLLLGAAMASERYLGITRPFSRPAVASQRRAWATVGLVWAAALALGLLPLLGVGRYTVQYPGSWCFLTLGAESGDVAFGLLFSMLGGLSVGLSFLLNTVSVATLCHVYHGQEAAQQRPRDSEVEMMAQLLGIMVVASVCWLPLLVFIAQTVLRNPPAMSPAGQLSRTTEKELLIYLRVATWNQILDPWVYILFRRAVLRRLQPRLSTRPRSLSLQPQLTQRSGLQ

[3] = biological target: T3, Prostaglandin G/H synthase 1 (Homo sapiens, UniProt P23219); format: functional
Mu-type opioid receptor = Mu-type opioid receptor (Homo sapiens, UniProt P35372)
Adenosine receptor A3 = biological target: T4, Adenosine receptor A3 (Homo sapiens, UniProt P0DMS8)
T4 sequence (P0DMS8 whole entry): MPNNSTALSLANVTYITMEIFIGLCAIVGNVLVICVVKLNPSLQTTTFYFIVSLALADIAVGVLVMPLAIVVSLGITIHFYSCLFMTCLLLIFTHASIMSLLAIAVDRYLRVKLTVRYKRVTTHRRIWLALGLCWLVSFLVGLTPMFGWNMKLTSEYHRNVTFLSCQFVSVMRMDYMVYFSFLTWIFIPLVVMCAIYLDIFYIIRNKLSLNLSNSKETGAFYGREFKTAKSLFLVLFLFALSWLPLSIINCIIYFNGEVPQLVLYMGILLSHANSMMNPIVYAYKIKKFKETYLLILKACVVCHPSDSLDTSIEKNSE

[4] = biological target: T5, Alpha-1A adrenergic receptor (Homo sapiens, UniProt P35348); format: functional, cell-based
T5 sequence (P35348 whole entry): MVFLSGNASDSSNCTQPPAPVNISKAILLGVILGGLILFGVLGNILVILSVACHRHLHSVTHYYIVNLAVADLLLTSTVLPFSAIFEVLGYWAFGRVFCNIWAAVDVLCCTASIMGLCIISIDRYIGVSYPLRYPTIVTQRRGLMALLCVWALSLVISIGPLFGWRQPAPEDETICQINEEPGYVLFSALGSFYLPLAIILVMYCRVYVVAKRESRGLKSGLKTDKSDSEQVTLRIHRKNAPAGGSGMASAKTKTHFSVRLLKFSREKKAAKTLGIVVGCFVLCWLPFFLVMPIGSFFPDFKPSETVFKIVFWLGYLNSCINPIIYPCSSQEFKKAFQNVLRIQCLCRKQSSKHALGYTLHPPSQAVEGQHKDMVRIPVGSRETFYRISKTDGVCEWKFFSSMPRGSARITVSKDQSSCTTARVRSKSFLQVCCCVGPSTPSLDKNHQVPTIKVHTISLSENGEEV

[5] = biological target: T3, Prostaglandin G/H synthase 1; format: functional; remark: listed apart in the source
Acetylcholinesterase = Acetylcholinesterase (Homo sapiens, UniProt P22303); format: functional
Also: assay procedure not described here.

Chain of Sodium-dependent dopamine transporter (Q01959 whole entry): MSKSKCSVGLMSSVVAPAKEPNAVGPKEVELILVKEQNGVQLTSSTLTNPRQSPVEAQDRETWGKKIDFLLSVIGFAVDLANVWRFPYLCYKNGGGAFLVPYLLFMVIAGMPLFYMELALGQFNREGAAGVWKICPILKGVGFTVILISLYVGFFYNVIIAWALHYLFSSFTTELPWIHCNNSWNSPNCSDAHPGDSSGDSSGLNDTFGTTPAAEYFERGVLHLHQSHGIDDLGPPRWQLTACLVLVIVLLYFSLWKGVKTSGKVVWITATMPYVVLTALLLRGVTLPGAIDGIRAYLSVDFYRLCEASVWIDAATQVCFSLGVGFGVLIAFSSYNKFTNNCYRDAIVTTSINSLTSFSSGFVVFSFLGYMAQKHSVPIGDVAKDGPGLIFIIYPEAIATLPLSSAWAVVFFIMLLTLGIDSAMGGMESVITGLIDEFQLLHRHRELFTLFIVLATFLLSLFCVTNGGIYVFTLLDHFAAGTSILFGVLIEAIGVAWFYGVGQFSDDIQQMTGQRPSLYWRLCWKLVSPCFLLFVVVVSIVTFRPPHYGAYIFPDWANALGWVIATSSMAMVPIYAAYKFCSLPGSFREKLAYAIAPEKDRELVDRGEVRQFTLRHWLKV
T3 sequence (P23219 whole entry): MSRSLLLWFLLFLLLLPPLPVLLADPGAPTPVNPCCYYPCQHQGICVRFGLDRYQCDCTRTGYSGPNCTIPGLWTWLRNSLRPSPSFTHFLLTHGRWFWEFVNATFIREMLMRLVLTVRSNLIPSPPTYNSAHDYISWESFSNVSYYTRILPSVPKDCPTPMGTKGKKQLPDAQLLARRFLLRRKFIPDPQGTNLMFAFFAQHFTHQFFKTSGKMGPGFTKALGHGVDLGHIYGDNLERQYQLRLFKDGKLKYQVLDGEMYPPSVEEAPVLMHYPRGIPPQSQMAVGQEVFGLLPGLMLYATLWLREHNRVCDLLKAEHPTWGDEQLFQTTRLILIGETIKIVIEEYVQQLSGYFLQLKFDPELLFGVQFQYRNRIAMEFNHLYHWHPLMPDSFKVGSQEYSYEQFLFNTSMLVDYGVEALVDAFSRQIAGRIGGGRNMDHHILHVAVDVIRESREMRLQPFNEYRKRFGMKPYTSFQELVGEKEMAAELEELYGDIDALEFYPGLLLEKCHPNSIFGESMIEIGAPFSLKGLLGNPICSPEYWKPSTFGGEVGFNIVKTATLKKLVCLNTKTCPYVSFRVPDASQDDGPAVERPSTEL
Chain of Acetylcholinesterase (P22303 whole entry): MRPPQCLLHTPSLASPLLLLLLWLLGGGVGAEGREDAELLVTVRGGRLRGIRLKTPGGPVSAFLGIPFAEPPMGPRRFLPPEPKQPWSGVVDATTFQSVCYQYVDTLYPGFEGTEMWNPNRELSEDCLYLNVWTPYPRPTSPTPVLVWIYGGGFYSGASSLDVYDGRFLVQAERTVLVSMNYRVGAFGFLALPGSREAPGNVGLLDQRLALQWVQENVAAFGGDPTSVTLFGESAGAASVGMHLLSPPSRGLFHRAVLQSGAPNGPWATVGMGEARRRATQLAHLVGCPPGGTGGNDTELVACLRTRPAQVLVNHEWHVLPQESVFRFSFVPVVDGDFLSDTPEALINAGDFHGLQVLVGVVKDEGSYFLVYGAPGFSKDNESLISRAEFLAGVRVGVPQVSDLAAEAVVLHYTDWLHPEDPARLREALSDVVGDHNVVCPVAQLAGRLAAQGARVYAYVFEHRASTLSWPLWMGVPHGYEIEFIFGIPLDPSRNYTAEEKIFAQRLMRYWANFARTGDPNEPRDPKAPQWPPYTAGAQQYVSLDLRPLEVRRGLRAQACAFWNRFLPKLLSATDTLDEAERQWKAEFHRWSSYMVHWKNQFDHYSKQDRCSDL
Chain of Mu-type opioid receptor (P35372 whole entry): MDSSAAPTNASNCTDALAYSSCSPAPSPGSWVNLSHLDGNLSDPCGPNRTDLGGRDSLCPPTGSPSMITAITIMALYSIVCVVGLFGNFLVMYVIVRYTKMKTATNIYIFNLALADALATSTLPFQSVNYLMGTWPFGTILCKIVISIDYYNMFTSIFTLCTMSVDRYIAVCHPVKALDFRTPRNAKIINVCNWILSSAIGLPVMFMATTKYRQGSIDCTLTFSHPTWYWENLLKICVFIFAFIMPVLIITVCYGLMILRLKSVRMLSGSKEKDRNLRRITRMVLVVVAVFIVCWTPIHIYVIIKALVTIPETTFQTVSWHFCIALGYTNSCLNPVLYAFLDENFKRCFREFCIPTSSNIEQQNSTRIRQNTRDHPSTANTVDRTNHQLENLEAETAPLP

Structure (SMILES) | AC50 [1] [µM] | AC50 [2] [µM] | AC50 (Thromboxane A2 receptor) [µM] | AC50 [3] [µM] | AC50 (Mu-type opioid receptor) [µM] | AC50 (Adenosine receptor A3) [µM] | AC50 [4] [µM] | AC50 [5] [µM] | AC50 (Acetylcholinesterase) [µM]
O=c1[nH]c(=O)n(C2CCCO2)cc1F (configuration not stated) [TEGAFUR] | > 30 | > 30 | > 30 | > 30 | > 30 | > 30 | > 30 | > 30 | > 30
Cc1cc(OP(=O)(O)O)c2ccccc2c1OP(=O)(O)O [MENADIOL SODIUM DIPHOSPHATE] | > 30 | > 30 | > 30 | > 30 | > 30 | > 30 | > 30 | > 30 | > 30
Nc1ccncc1N [AMIFAMPRIDINE] | > 30 | > 30 | > 30 | > 30 | > 30 | > 30 | > 30 | > 30 | > 30
COc1ccccc1N1CCN(CC(O)COc2cccc3ccccc23)CC1 (configuration not stated) [NAFTOPIDIL] | 4.46 | > 30 | > 3 | > 30 | 0.9 |  |  | > 30 | 26.1
Cc1ccccc1OCC(O)CO (configuration not stated) [MEPHENESIN] | > 30 | > 30 | > 30 | > 30 | > 30 | > 30 | > 30 | > 30 | > 30
CCOC(=O)[C@H](CCc1ccccc1)N[C@@H](C)C(=O)N1CC2(C[C@H]1C(=O)O)SCCS2 | > 30 | > 30 | > 30 | > 30 | > 30 | > 30 | > 30 | > 30 | > 30
NC(=O)C[C@H](N)C(=O)O [ASPARAGINE] | > 30 | > 30 | > 30 | > 30 | > 30 | > 30 | > 30 | > 30 | > 30
OC[C@@H](O)[C@H](O)[C@@H](O)CO [XYLITOL] | > 30 | > 30 | > 30 | > 30 | > 30 | > 30 | > 30 | > 30 | > 30
CCCC1O[C@@H]2C[C@H]3[C@@H]4CCC5=CC(=O)C=C[C@]5(C)[C@H]4[C@@H](O)C[C@]3(C)[C@]2(C(=O)CO)O1 (some centres not stated) [BUDESONIDE] | > 30 | > 30 | > 30 | > 30 | > 30 | > 30 | > 30 | > 30 | > 30
CN1CCN(C2=Nc3ccccc3Sc3ccc(Cl)cc32)CC1 [CLOTHIAPINE] | 3.62 | 0.52 | > 10 | > 30 | 1.1 |  | > 10 | > 30 | > 30
CC[C@H]1CN2CCc3cc(OC)c(OC)cc3[C@@H]2C[C@@H]1C[C@H]1NCCc2cc(OC)c(OC)cc21 [EMETINE] | > 30 | > 30 | > 30 | > 30 | 5.99 |  |  | > 30 | > 30
Cc1cc(C)c(NC(=O)CN(CC(=O)O)CC(=O)O)c(C)c1Br [MEBROFENIN] | > 30 | > 30 | > 30 | > 30 | > 30 |  |  | > 30 | > 30
Nc1ccc2cc3ccc(N)cc3nc2c1 [PROFLAVINE] | 5.16 | 2.61 |  | 22.1 | 3.64 | 10.2 | > 0.3 | 5.49 | 1.84
CCCCCNC(=N)N/N=C/c1c[nH]c2ccc(OC)cc12 [TEGASEROD] | 1.85 | 6.59 | > 3 | 20.4 | 2.32 |  | > 3 | 2.65 | > 30
